In ChEMBL document CHEMBL1149504, “Design and synthesis of substituted quinolines as novel and selective melanin concentrating hormone antagonists as anti-obesity agents” (Bioorg Med Chem Lett, 2006):

Key:
[1] = target: T1, 5-hydroxytryptamine receptor 2C (Homo sapiens, UniProt P28335); assay: Displacement of [3H]mesulergine from 5HT2C receptor
T1 sequence (P28335 whole entry): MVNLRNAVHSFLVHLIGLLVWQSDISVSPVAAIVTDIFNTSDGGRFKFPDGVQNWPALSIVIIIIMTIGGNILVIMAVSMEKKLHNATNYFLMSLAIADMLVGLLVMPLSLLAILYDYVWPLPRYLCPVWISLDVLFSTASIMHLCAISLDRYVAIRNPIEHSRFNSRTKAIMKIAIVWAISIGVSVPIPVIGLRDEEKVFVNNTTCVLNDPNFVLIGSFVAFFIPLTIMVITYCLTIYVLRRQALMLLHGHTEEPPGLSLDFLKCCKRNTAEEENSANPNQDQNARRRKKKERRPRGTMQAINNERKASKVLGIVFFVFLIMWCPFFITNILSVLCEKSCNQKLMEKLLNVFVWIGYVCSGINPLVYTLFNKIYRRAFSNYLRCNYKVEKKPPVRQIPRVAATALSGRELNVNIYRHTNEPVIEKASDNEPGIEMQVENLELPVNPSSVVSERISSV

[2] = target: Melanin-concentrating hormone receptor 1 (Homo sapiens, UniProt Q99705); assay: Binding affinity to MCHR1 by radioligand binding assay
Chain of Melanin-concentrating hormone receptor 1 (Q99705 whole entry): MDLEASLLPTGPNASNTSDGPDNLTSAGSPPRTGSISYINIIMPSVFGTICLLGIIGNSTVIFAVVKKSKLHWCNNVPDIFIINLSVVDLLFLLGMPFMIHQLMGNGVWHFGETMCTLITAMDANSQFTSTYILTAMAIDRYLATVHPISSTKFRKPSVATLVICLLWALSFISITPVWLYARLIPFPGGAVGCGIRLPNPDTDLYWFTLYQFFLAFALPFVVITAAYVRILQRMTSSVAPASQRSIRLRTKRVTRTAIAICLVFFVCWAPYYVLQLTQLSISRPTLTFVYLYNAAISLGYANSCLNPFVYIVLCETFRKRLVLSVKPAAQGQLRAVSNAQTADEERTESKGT

IC50 [1] [µM]	Ki [2] [µM]	SMILES
16.5	1.15	O=C(NCc1cccc2cc(CN3CC[C@H](O)C3)cnc12)c1ccc(-c2ccc(F)cc2)nc1
4.19	0.031	CN(Cc1cccc2cc(CN3CCCCC3)cnc12)C(=O)c1ccc(-c2ccc(F)cc2)cc1
14.1	0.31	CCN(CC)Cc1cnc2c(CNC(=O)c3ccc(-c4ccc(F)cc4)nc3)cccc2c1
20.2	3.54	CN1CCN(Cc2cnc3c(CNC(=O)c4ccc(-c5ccc(F)cc5)nc4)cccc3c2)CC1
10.3	0.414	CN(C)Cc1cnc2c(CNC(=O)c3ccc(-c4ccc(F)cc4)nc3)cccc2c1
25.2	0.126	CCN(CC)Cc1cnc2c(Cn3cnc4cc(-c5ccc(Cl)cc5)sc4c3=O)cccc2c1
4.16	0.102	CCN(CC)Cc1cnc2c(CNC(=O)c3ccc(-c4ccc(F)cc4)cc3)cccc2c1
14.6	0.803	O=C(NCc1cccc2cc(CN3CCC(O)CC3)cnc12)c1ccc(-c2ccc(F)cc2)nc1
2.81	0.195	O=C(NCc1cccc2cc(CN3CCC(O)CC3)cnc12)c1ccc(-c2ccc(F)cc2)cc1
3.59	0.142	O=C(NCc1cccc2cc(CN3CC[C@H](O)C3)cnc12)c1ccc(-c2ccc(F)cc2)cc1
7.47	1.41	O=C(NCc1cccc2cc(CN3CCOCC3)cnc12)c1ccc(-c2ccc(F)cc2)cc1

Second part, the molecule before the results:

SMILES	IC50 [1] [µM]	Ki [2] [µM]
CS(=O)(=O)N1CCN(Cc2cnc3c(Cn4cnc5cc(-c6ccc(Cl)cc6)sc5c4=O)cccc3c2)CC1	> 100	0.773
O=c1c2sc(-c3ccc(Cl)cc3)cc2ncn1Cc1cccc2cc(CN3CCCC3)cnc12	> 100	0.091
O=c1c2sc(-c3ccc(Cl)cc3)cc2ncn1Cc1cccc2cc(CN3CCC(O)CC3)cnc12	> 100	0.051
CN(C)Cc1cnc2c(Cn3cnc4cc(-c5ccc(Cl)cc5)sc4c3=O)cccc2c1	1.31	0.197
CN1CCN(Cc2cnc3c(Cn4cnc5cc(-c6ccc(Cl)cc6)sc5c4=O)cccc3c2)CC1	> 100	0.11
CN(CC(=O)N(C)C)Cc1cnc2c(Cn3cnc4cc(-c5ccc(Cl)cc5)sc4c3=O)cccc2c1	> 100	0.136
CS(=O)(=O)C1CCN(Cc2cnc3c(CNC(=O)c4ccc(-c5ccc(F)cc5)cc4)cccc3c2)CC1	> 100	0.31
O=C(NCc1cccc2cc(CN3CCOCC3)cnc12)c1ccc(-c2ccc(F)cc2)nc1	> 100	20.1
